The source of these data is publication PMC5520492, “Inhibition of DNA2 nuclease as a therapeutic strategy targeting replication stress in cancer cells” (Oncogenesis, 2017).

As a reminder, the IC50 is the point on the concentration scale where inhibition reaches its midpoint.

The assay has as its target T1, yDna2 (Saccharomyces cerevisiae, UniProt P38859).
T1 construct: made in house
Briefly: High-throughput fluorescence nuclease assay with yDna2 (triply labeled (dT)30 ssDNA). The conditions noted are these: yeast Dna2 0.09 nM; substrate 0.1 μM; Figure 3c; read-out: IC50 (yeast Dna2), dose-response in vitro. It counts as biochemical, yeast. As to the method: The screen entailed the use of oligonucleotide (dT)30 having a reporter fluorescent moiety, 6-FAM on the 5′ end, and the dark quenching group, Iowa Black FQ, on the 3′ end. In addition, a second dark quencher ZEN was placed between the 9th and 10th base (Figure 2a). The fluorescence emitted by 6-FAM is quenched by FRET, but it increases when DNA is degraded by Dna2. […] The inhibitory activity of the compounds was determined as a reduction in fluorescent signal compared with the dimethylsulfoxide (DMSO) only control. […] We screened ~50 000 chemical compounds from six different libraries (Supplementary Table S1) to identify chemical inhibitors of the Dna2 nuclease activity. […] The DNA2 nuclease domain is well conserved among eukaryotes, and therefore we reasoned that inhibitors of yDna2 will likely also work with the human counterpart.
Initial screen, it was performed with yDna2.[22] Then, the top candidate compounds were tested on hDNA2. Identical reaction conditions were used for assaying the nuclease activity of yDna2 and hDNA2. […] The reaction buffer was 20 mM HEPES/NaOH, pH 7.5, 60 mM KCl, 1 mM DTT, 100 μg/ml bovine serum albumin and 0.05% Triton X-100. The nuclease assay was initiated by adding MgCl2 (3 mM final concentration). T5 nuclease was assayed in the buffer (50 mM potassium acetate, pH 7.9, 20 mM Tris-acetate, 10 mM magnesium acetate and 1 mM DTT) provided by the vendor (NEB, Ipswich, MA, USA). The concentration of the fluorogenic substrate was 0.1 μM. The optimal amount of yDna2, hDNA2 and T5 nuclease was determined by utilizing the Kaleidagraph software (Reading, PA, USA) to fit the data according to Michaelis Menton Kinetics (V=V0+Vmax*x/(Km+x)). […] The Z’ value was calculated as previously described.[50] Cell proliferation was determined using 4,6-diamidino-2-phenylindole staining followed by high-throughput microscopy in a 384-well plate setup. In brief, cells were fixed with formaldehyde, washed and stained with 4,6-diamidino-2-phenylindole and the number of nuclei in each well counted by automated microscopy. The data were analyzed as described.[51]

T1 sequence (P38859 whole entry): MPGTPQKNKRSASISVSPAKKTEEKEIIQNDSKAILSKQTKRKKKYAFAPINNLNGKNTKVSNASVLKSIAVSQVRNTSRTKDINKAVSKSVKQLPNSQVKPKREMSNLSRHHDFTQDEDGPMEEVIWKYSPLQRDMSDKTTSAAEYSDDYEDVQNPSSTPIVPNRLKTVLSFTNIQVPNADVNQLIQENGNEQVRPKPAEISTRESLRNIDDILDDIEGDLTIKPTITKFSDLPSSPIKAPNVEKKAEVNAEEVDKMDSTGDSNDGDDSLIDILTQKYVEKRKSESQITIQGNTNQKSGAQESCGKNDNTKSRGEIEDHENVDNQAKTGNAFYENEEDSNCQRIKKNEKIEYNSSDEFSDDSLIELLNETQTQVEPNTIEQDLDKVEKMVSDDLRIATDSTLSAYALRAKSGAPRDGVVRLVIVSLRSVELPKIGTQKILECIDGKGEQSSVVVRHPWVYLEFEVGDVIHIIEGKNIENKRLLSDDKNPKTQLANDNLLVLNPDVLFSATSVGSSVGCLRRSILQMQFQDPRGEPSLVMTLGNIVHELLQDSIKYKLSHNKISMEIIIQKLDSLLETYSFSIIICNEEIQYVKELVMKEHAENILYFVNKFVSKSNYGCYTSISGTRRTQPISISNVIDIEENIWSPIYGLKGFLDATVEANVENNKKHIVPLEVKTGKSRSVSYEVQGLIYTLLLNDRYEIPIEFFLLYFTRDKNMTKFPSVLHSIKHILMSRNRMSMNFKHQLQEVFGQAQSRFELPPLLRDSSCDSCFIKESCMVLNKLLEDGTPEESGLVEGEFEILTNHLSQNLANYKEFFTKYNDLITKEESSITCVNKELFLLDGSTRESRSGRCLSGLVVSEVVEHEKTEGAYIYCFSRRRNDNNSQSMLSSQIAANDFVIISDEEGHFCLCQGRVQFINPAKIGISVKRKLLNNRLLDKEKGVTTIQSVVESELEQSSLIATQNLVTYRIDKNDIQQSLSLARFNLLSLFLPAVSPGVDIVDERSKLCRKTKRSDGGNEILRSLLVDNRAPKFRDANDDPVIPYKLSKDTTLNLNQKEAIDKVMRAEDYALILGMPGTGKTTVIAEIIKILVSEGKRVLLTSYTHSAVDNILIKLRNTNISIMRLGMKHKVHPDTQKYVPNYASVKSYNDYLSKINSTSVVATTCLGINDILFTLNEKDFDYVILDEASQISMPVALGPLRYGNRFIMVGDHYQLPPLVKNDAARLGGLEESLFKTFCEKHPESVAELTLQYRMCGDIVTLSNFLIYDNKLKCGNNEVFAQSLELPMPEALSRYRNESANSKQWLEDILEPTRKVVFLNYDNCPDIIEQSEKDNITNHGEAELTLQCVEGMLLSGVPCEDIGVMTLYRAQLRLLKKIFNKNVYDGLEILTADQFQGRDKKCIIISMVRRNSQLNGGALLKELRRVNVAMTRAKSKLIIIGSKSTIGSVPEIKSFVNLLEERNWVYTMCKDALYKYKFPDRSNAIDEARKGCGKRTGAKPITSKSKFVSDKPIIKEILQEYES

Turning to `NC1=C(Br)C(=O)c2ncccc2C1=O` [NSC-105808, 6-amino-7-bromoquinoline-5,8-dione], the IC50 came to 2000 nM.

For `O=C1C(=O)c2cc([N+](=O)[O-])ccc2-c2ccccc21` [NSC-5195242, 2-nitrophenanthrene-9,10-dione], the IC50 was found to be 3900 nM.
